The source of these data is patent US6420172B1, “Method for inducing tumor immunity” (TIB Company, LLC, priority 1992, dated 2002).

One test relates to tumor cells. Conditions: literature reports; cited from earlier work.
A further test has as its system transfected C6 cells. Briefly: 3H-thymidine incorporation into transfected C6 cells in serum-free medium. It counts as cell-based, rat. Conditions: 48 hours, 50 μg/ml. From the text: The mechanism underlying the loss of tumorigenicity for the antisense IGF-1 transfectants is linked to enhanced immunogenicity. Applicant notes a striking infiltration of mononuclear cells surrounding the injected C6 transfected cells in vivo. No such infiltrates ere apparent for the parental (IGF-I positive) cells in he tumors formed in vivo. […] This possibility is substantiated by the examples provided below. This immunological component may exist together with an antiproliferative effect. C6 cellular proliferation is likely to involve factors in addition to IGF-1, however, since the rate of incorporation of ^3H-thymidine into transfected C6 cells cultured for 48 hours in serum-free medium was unaffected by the presence of ZnSO^4 or IGF-I protein (50 μg/ml) in the culture medium (data not shown).

With `C[C@@H](O)[C@@H]1NC(=O)[C@H](CCCCN)NC(=O)[C@@H](Cc2c[nH]c3ccccc23)NC(=O)[C@H](Cc2ccccc2)NC(=O)[C@@H](NC(=O)[C@H](N)Cc2ccccc2)CSSC[C@@H](C(=O)N[C@H](CO)[C@@H](C)O)NC1=O` [octreotide], in the test on tumor cells, the “tumor development in vivo” value is on record as “not blocked”.

Consider “IGF-I protein: Insulin-like growth factor I protein added to the culture medium”, for which, in the test with transfected C6 cells, the “rate of incorporation of 3H-thymidine in the presence of IGF-I protein” value is on record as “unaffected”.
